Source: patent US10189785B2, “Heterocyclic compound” (TAKEDA PHARMACEUTICAL COMPANY LIMITED, priority 2015, dated 2019)

Tests used:
[1] = molecular target: T1, SPT (SPT2-expressing membrane fraction: human SPT1, human SPT2 and human ssSPTa) (Homo sapiens, UniProt O15269+O15270); test: SPT enzyme inhibition test (Test Example 1); format: biochemical; conditions: read-out: Rate of inhibition (%) at 1 μM
T1 construct: Full-length human SPT1, human SPT2 and human ssSPTa used; made in house; host or cells: FreeStyle 293 cells (pcDNA3.1 vectors, cotransfection); crude membrane fraction used
T1 sequence (O15269 1-473): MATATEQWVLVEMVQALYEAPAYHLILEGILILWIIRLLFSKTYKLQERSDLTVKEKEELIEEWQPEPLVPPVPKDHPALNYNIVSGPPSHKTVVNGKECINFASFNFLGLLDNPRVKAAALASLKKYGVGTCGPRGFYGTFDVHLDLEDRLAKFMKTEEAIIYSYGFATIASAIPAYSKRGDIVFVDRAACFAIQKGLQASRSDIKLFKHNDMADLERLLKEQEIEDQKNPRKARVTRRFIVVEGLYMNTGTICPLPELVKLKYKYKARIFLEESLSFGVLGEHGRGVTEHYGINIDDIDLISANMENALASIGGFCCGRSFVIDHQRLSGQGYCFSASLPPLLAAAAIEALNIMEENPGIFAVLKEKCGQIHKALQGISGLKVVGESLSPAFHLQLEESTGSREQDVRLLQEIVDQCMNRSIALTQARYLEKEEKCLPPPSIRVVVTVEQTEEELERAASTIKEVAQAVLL
T1 sequence (O15270 1-562): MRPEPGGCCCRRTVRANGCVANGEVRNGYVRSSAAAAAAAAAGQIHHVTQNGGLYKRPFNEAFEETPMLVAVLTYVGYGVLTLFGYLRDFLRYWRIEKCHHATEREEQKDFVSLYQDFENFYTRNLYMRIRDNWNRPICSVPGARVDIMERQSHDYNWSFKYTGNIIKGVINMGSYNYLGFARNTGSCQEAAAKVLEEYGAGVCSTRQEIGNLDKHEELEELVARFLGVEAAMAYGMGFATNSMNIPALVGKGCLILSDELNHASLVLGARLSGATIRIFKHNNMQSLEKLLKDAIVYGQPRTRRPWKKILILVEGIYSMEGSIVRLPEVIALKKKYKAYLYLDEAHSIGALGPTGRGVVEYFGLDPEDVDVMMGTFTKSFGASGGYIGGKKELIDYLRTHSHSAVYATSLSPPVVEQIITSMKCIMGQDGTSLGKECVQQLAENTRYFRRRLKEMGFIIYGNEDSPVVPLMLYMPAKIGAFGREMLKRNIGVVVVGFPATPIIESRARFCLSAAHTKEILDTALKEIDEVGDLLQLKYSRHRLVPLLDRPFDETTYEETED
T1 sequence (Q969W0 1-71 partner): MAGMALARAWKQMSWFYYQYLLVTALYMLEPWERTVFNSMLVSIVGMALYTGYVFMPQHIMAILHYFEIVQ
Outline: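 Membrane fraction (100 μg/mL stock) of cells expressing human SPT1, SPT2 and ssSPTa was preincubated 60 min at RT with compound in 100 mM Hepes pH 8.0 containing EDTA, DTT and 0.01% BSA. Reaction ran 15 min at RT with 2 mM L-serine and 20 μM palmitoyl CoA (solution concentrations), then formic acid quench. Product measured by RapidFire mass spectrometry against a C17-sphinganine internal standard, giving % inhibition.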

[2] = test system: lung adenocarcinoma cell line HCC4006; test: HCC4006 cell growth inhibition test (Test Example 2); format: cell-based; conditions: Homo sapiens, 120 h; 1 μM test compound; HCC4006 cells, culture for 5 days, CellTiter-Glo; read-out: Rate of inhibition (%) at 1 μM
Outline: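 HCC4006 cells in RPMI-1640 with 10% FBS were seeded at 250 cells/well and dosed with compound the next day. After 5 days, viability was read by CellTiter-Glo luminescence. Percent inhibition was calculated against no-compound control and cell-free blank.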

inhibition at 1 µM [1] [%] | SMILES | inhibition at 1 µM [2] [%]
96 | COc1cc(C(=O)N2CC[C@@H](NC(=O)c3cn(C)nc3C)[C@@H](c3ccccc3)C2)cnc1OC [Example 152B, N-((3S,4R)-1-((5,6-dimethoxypyridin-3-yl)carbonyl)-3-phenylpiperidin-4-yl)-1,3-dimethyl-1H-pyrazole-4-carboxamide] | 33
101 | Cc1nn(C)c(Cl)c1C(=O)N[C@@H]1CCN(C(=O)c2cc(Cl)c3nccnc3c2)C[C@@H]1c1ccccc1 [Example 166B, 5-Chloro-N-((3S,4R)-1-((8-chloroquinoxalin-6-yl)carbonyl)-3-phenylpiperidin-4-yl)-1,3-dimethyl-1H-pyrazole-4-carboxamide] | 53
100 | CCOc1cc(C(=O)N[C@@H]2CCN(C(=O)c3cc(Cl)c4nccnc4c3)C[C@@H]2c2ccccc2)n(C)n1 [Example 170B, N-((3S,4R)-1-((8-Chloroquinoxalin-6-yl)carbonyl)-3-phenylpiperidin-4-yl)-3-ethoxy-1-methyl-1H-pyrazole-5-carboxamide] | 50
101 | O=C(N[C@@H]1CCN(C(=O)c2cc(Cl)c3nccnc3c2)C[C@@H]1c1ccccc1)c1ncccc1C(F)(F)F [Example 241B, N-((3S,4R)-1-((8-Chloroquinoxalin-6-yl)carbonyl)-3-phenylpiperidin-4-yl)-3-(trifluoromethyl)pyridine-2-carboxamide] | 54
101 | O=C(N[C@@H]1CCN(C(=O)c2cc(Cl)c3nccnc3c2)C[C@@H]1c1ccccc1)c1ncccc1Cl [Example 246B, 3-Chloro-N-((3S,4R)-1-((8-chloroquinoxalin-6-yl)carbonyl)-3-phenylpiperidin-4-yl)pyridine-2-carboxamide] | 55
103 | Cc1cc(C(=O)N2CC[C@@H](NC(=O)c3ncccc3C(F)(F)F)[C@@H](c3ccccc3)C2)cn2c(C)cnc12 [Example 279B, N-((3S,4R)-1-((3,8-dimethylimidazo[1,2-a]pyridin-6-yl)carbonyl)-3-phenylpiperidin-4-yl)-3-(trifluoromethyl)pyridine-2-carboxamide] | 44
99 | COc1cc(C(=O)N2CC[C@@H](NC(=O)c3c(C)c(C)nn3C)[C@@H](c3ccccc3)C2)cc2nccnc12 [Example 324B, N-((3S,4R)-1-((8-methoxyquinoxalin-6-yl)carbonyl)-3-phenylpiperidin-4-yl)-1,3,4-trimethyl-1H-pyrazole-5-carboxamide] | 49
102 | COc1cc(C(=O)N2CC[C@@H](NC(=O)c3cc(C4CC4)nn3C)[C@@H](c3ccccc3)C2)cc2nccnc12 [Example 330B, 3-cyclopropyl-N-((3S,4R)-1-((8-methoxyquinoxalin-6-yl)carbonyl)-3-phenylpiperidin-4-yl)-1-methyl-1H-pyrazole-5-carboxamide] | 49
101 | Cc1nn(C)c(Cl)c1C(=O)N[C@@H]1CCN(C(=O)c2cc(Cl)c3ncc(C)n3c2)C[C@@H]1c1ccccc1 [Example 342B, 5-chloro-N-((3S,4R)-1-((8-chloro-3-methylimidazo[1,2-a]pyridin-6-yl)carbonyl)-3-phenylpiperidin-4-yl)-1,3-dimethyl-1H-pyrazole-4-carboxamide] | 51

Further lines, the compound ahead of its results:

SMILES | inhibition at 1 µM [1] [%] | inhibition at 1 µM [2] [%]
CCn1ncc2c1C(NC(=O)c1ccc(Cl)cc1C(F)(F)F)CCN2C(=O)c1cnc(OC)c(OC)c1 (centres unmarked) [Example 153A, 4-Chloro-N-(4-((5,6-dimethoxypyridin-3-yl)carbonyl)-1-ethyl-4,5,6,7-tetrahydro-1H-pyrazolo[4,3-b]pyridin-7-yl)-2-(trifluoromethyl)benzamide] | 101 | 53
CCn1ncc2c1C(NC(=O)c1ccccc1OC(F)(F)F)CCN2C(=O)c1cnc(OC)c(OC)c1 (centres unmarked) [Example 155A, N-(4-((5,6-Dimethoxypyridin-3-yl)carbonyl)-1-ethyl-4,5,6,7-tetrahydro-1H-pyrazolo[4,3-b]pyridin-7-yl)-2-(trifluoromethoxy)benzamide] | 103 | 53
CCn1ncc2c1[C@@H](NC(=O)c1ccc(Cl)cc1C(F)(F)F)CCN2C(=O)c1cnc(OC)c(OC)c1 [Example 165A, 4-Chloro-N-((7S)-4-((5,6-dimethoxypyridin-3-yl)carbonyl)-1-ethyl-4,5,6,7-tetrahydro-1H-pyrazolo[4,3-b]pyridin-7-yl)-2-(trifluoromethyl)benzamide] | 101 | 52
COc1ncc(C(=O)N2CC[C@H](NC(=O)c3ccc(Cl)cc3C(F)(F)F)c3c2cnn3CC(F)F)cc1Cl [Example 170A, 4-Chloro-N-((7S)-4-((5-chloro-6-methoxypyridin-3-yl)carbonyl)-1-(2,2-difluoroethyl)-4,5,6,7-tetrahydro-1H-pyrazolo[4,3-b]pyridin-7-yl)-2-(trifluoromethyl)benzamide] | 99 | 50
COc1cc(C(=O)N2CC[C@H](NC(=O)c3ccccc3OC(F)(F)F)c3c2cnn3C)cnc1OC [Example 171A, N-((7S)-4-((5,6-Dimethoxypyridin-3-yl)carbonyl)-1-methyl-4,5,6,7-tetrahydro-1H-pyrazolo[4,3-b]pyridin-7-yl)-2-(trifluoromethoxy)benzamide] | 101 | 50
CCn1ncc2c1[C@@H](NC(=O)c1ccccc1OC(F)(F)F)CCN2C(=O)c1cnc(OC)c(OC)c1 [Example 178A, N-((7S)-4-((5,6-Dimethoxypyridin-3-yl)carbonyl)-1-ethyl-4,5,6,7-tetrahydro-1H-pyrazolo[4,3-b]pyridin-7-yl)-2-(trifluoromethoxy)benzamide] | 101 | 53
COc1ccc(C(=O)N2CCC(NC(=O)c3ccccc3Cl)c3c2cnn3CCC(C)(C)O)cc1OC (centres unmarked) [Example 186A, 2-chloro-N-(4-(3,4-dimethoxybenzoyl)-1-(3-hydroxy-3-methylbutyl)-4,5,6,7-tetrahydro-1H-pyrazolo[4,3-b]pyridin-7-yl)benzamide] | 101 | 47
COc1cc(C(=O)N2CC[C@@H](NC(=O)c3ncccc3C(F)(F)F)[C@@H](c3ccc(F)cc3)C2)cnc1OC [Example 191B, N-((3S,4R)-1-((5,6-dimethoxypyridin-3-yl)carbonyl)-3-(4-fluorophenyl)piperidin-4-yl)-3-(trifluoromethyl)pyridine-2-carboxamide] | 100 | 47
O=C(N[C@@H]1CCN(C(=O)c2cc(Cl)c3nccnc3c2)C[C@@H]1c1ccc(F)cc1)c1ncccc1C(F)(F)F [Example 245B, N-((3S,4R)-1-((8-Chloroquinoxalin-6-yl)carbonyl)-3-(4-fluorophenyl)piperidin-4-yl)-3-(trifluoromethyl)pyridine-2-carboxamide] | 100 | 53
O=C(N[C@@H]1CCN(C(=O)c2cc(Cl)c3nccnc3c2)C[C@@H]1c1ccccc1)c1ccccc1OC(F)(F)F [Example 254B, N-((3S,4R)-1-((8-chloroquinoxalin-6-yl)carbonyl)-3-phenylpiperidin-4-yl)-2-(trifluoromethoxy)benzamide] | 99 | 55
